Experimental data as given in ChEMBL document CHEMBL1201862, “PubChem BioAssay data set” (2004).
Calls of active or inactive are those of the source.

Columns and labels:
Insulin-degrading enzyme [1] = molecular target: T1, Insulin-degrading enzyme (Homo sapiens, UniProt P14735); test: activators of recombinant IDE enzyme, dose response, counter-screen for IDE activator project, biochemical, fluorescence polarization (AID 588681)
T1 sequence (P14735 whole entry): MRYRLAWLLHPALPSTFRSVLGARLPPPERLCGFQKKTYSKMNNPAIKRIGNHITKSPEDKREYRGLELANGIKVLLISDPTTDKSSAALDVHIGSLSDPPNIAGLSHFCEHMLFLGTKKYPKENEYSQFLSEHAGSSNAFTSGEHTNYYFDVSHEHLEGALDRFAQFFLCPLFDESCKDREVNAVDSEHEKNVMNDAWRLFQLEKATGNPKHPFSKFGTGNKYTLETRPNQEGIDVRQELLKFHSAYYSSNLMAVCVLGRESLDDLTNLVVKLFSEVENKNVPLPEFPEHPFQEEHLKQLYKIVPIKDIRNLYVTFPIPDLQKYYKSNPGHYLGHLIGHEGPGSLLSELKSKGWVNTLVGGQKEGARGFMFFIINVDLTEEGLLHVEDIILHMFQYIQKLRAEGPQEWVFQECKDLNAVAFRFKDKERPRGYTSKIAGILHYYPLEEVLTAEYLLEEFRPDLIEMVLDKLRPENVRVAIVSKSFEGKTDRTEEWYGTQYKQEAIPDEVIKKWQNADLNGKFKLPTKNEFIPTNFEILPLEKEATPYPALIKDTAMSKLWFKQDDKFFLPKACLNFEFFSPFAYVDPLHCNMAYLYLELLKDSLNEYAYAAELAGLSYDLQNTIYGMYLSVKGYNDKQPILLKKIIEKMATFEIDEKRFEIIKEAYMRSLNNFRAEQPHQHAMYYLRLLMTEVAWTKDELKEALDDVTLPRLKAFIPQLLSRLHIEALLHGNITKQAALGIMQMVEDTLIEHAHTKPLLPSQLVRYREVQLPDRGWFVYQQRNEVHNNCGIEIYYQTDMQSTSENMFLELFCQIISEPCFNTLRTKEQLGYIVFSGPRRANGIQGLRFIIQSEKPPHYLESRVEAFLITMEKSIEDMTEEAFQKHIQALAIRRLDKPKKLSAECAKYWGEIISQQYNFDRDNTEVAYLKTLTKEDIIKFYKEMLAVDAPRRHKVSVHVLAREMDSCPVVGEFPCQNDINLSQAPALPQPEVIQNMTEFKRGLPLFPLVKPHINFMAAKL

Insulin-degrading enzyme [2] = molecular target: T1, Insulin-degrading enzyme; test: activators of endogenous IDE in HEK cells, dose response, cell-based, fluorescence polarization (AID 588439); assay type: functional
HEK293 [3] = test: HEK cell cytotoxicity by LDH release, dose response, cytotoxicity control for IDE activator project, fluorescence, HEK cells (AID 588440); assay type: functional, cell-based; conditions: Homo sapiens;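 further: cytotoxicity by LDH release measuring loss of membrane integrity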
HEK293 [4] = test: optical interference in Abeta FP readout, dose response, artefact control for IDE activator project, biochemical, fluorescence polarization (AID 588442); assay type: functional, cell-based; conditions: Homo sapiens
[5] = molecular target: T2, Ubiquitin-conjugating enzyme E2 N (Homo sapiens, UniProt P61088); assay type: functional;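 further: Dose-response confirmation in a TR-FRET assay detecting UBC13-driven polyubiquitin chain formation, inhibition measured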
T2 sequence (P61088 whole entry): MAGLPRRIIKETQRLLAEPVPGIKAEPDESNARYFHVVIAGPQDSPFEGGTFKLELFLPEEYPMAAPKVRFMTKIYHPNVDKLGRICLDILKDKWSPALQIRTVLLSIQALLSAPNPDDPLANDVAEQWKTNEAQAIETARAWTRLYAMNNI

INS1 = test: beta cell apoptosis inhibitors, cytokine rescue, dose response, luminescence, retest (AID 449756); assay type: functional, cell-based; conditions: Rattus norvegicus;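 further: cell death triggered by IL-1 beta plus TNF-alpha plus IFN-gamma mixture; protective hits raise ATP signal compared with cytokine alone wells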
[6] = molecular target: T3, Methionyl-tRNA synthetase, putative (Trypanosoma brucei brucei, UniProt Q38C91); assay type: functional, Trypanosoma brucei brucei strain 927/4 GUTat10.1
T3 sequence (Q38C91 whole entry): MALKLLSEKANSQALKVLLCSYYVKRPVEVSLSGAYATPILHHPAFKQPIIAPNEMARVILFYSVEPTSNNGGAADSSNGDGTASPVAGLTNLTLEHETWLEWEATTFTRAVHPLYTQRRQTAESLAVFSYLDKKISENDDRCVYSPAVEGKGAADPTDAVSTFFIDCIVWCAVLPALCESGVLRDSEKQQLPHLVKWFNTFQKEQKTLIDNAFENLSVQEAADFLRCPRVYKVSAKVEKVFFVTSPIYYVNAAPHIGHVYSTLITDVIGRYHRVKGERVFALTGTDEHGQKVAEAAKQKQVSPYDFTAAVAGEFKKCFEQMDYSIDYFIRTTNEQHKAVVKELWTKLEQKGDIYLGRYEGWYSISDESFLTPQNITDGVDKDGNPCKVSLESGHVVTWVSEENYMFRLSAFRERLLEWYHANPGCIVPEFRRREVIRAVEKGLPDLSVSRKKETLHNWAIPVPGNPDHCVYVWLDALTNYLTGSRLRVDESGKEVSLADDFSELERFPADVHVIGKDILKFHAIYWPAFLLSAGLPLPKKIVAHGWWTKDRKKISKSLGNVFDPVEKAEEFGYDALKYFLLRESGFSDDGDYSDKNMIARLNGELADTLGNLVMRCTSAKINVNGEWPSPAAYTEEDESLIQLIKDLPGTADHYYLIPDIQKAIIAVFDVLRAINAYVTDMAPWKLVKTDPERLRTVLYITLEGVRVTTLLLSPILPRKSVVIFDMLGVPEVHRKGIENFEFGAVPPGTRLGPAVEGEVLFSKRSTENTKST

[7] = Counterscreen for inhibitors of Trypanosoma brucei methionyl tRNA synthetase (MetRS): Luminescence-based cell-based high throughput dose response assay to identify compounds that are cytotoxic to Jurkat human T lymphocyte cells.; assay type: functional
[8] = molecular target: T3, Methionyl-tRNA synthetase, putative; assay type: functional, Trypanosoma brucei brucei strain 927/4 GUTat10.1; remark: listed apart in the source
[9] = test system: Streptococcus sp. 'group A'; test: growth inhibition of control SK(-) GAS strain, dose response, counter-screen for streptokinase expression inhibitor project, luminescence, kanamycin, BacTiterGlo, confirmation (AID 1900); assay type: functional, organism-based
Streptokinase A = molecular target: T4, Streptokinase A (Streptococcus pyogenes serotype M1, UniProt P10520); test: S. pyogenes streptokinase expression inhibitors, potency, dose response, plasminogen activation absorbance, OD405 (AID 1914); assay type: functional, Streptococcus pyogenes M1 GAS;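 further: secreted streptokinase activity via plasminogen activation per viability signal from cell pellet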
T4 sequence (P10520 whole entry): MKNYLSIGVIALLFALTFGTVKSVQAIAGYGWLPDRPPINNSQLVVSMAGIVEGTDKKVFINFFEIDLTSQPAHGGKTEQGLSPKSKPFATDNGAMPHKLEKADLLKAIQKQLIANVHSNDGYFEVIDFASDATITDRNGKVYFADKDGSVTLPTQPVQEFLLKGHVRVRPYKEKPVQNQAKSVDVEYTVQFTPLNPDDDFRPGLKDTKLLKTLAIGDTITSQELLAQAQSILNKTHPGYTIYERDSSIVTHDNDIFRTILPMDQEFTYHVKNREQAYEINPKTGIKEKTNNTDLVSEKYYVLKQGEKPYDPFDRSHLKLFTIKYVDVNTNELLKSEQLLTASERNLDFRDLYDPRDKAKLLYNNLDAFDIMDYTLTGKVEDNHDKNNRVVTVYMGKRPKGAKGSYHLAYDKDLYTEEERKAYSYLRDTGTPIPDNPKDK

Streptococcus = test: Group A Streptococcus viability loss, dose response, counter-screen for streptokinase expression inhibitor project, luminescence, BacTiterGlo (AID 1915); assay type: functional, organism-based;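 further: potency for reduction of bacterial viability or growth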
Vero = test: Vero cell toxicity, dose response, cytotoxicity control, plate reader, cherry-pick samples (AID 687020); assay type: functional, cell-based; conditions: Chlorocebus sabaeus
[10] = molecular target: T5, DNA repair and recombination protein RAD54-like (Homo sapiens, UniProt Q92698); test: inhibitors of human RAD54 branch migration, confirmation, biochemical, fluorescence, cherry-picked samples, dose series (AID 651657); assay type: functional
T5 sequence (Q92698 whole entry): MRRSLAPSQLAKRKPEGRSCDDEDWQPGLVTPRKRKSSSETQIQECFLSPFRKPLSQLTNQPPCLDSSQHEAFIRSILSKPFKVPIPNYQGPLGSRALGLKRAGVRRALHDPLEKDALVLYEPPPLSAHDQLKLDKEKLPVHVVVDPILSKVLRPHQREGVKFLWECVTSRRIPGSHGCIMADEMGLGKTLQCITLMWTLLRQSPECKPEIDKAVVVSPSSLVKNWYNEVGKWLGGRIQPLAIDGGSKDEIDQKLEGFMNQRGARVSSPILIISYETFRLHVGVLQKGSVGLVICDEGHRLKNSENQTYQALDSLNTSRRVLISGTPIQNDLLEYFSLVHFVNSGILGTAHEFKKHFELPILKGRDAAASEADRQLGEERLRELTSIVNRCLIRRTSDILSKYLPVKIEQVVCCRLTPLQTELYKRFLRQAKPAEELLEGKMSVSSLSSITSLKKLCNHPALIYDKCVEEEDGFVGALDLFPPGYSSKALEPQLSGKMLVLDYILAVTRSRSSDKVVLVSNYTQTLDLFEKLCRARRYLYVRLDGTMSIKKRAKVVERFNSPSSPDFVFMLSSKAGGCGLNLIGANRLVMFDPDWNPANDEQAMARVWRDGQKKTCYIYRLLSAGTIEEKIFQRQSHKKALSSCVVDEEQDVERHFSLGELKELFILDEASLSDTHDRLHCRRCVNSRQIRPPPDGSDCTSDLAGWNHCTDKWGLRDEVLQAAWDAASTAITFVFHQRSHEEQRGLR

[11] = molecular target: T6, Histone-lysine N-methyltransferase NSD2 (Homo sapiens, UniProt O96028); assay type: biochemical
T6 sequence (O96028 whole entry): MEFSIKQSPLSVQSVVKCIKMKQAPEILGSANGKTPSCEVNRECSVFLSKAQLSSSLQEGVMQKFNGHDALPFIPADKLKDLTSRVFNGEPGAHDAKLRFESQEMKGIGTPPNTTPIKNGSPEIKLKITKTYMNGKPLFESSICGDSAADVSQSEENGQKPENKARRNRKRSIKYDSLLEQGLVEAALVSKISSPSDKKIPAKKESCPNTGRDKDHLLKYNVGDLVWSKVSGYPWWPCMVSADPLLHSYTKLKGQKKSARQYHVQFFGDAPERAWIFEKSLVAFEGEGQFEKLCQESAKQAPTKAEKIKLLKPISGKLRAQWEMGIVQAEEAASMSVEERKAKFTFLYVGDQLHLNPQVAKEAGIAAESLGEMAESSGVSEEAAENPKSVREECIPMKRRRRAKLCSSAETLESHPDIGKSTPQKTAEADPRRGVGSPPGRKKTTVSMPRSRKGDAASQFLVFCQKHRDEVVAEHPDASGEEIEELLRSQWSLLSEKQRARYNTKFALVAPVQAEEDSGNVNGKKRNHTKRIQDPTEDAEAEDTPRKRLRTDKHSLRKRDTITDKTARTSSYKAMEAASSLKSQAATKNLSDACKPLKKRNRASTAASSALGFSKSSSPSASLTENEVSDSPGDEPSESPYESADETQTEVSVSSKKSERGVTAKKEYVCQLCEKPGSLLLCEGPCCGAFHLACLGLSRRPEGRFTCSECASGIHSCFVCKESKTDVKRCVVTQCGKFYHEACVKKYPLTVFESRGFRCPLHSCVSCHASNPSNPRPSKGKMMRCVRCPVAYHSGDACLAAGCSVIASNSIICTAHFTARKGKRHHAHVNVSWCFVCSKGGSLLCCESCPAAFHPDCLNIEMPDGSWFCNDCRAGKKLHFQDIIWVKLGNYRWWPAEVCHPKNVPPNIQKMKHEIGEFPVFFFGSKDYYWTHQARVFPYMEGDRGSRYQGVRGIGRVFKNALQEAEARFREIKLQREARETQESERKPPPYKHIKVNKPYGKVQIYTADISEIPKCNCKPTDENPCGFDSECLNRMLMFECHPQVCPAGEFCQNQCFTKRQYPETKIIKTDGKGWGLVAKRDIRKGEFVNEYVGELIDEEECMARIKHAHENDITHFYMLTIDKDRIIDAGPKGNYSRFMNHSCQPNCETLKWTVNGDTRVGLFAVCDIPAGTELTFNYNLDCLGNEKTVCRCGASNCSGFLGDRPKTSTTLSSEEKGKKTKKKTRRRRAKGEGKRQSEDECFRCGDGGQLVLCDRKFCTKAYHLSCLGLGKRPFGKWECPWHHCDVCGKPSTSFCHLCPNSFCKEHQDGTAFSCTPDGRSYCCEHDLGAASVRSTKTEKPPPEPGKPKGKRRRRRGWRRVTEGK

cells = assay type: functional

| Structure (SMILES) | EC50 (Insulin-degrading enzyme [1]) | EC50 (Insulin-degrading enzyme [2]) | IC50 (HEK293 [3]) | EC50 (HEK293 [4]) | IC50 [6] | IC50 [7] | IC50 [8] | further results |
| --- | --- | --- | --- | --- | --- | --- | --- | --- |
| O=C(c1ccccc1)N1CCN(c2ccc([N+](=O)[O-])c(NCc3cccnc3)c2)CC1 | > 54.7 µM (inactive) | > 54.7 µM (inactive) | > 89.2 µM (inactive) | > 54.7 µM (inactive) |  |  |  |  |
| COC(=O)C1=C(C)N(Cc2ccccc2)C(NCc2cccc(C(F)(F)F)c2)=N[C@H]1c1cccc(C(F)(F)F)c1 | > 54.7 µM (inactive) | > 6.08 µM (active) | 13.6 µM (inactive) | > 54.7 µM (inactive) |  |  |  | IC50 [5]: > 20 µM (inactive); AC50 (INS1): 5.53 µM (active) |
| O=C(COC(=O)CCCOc1ccc(Cl)cc1Cl)Nc1cccc(Cl)c1 |  |  |  |  | 9.07 µM (active) | 83.3 µM (inactive) | 16.5 µM (inactive) |  |
| O=C(Nc1ccccc1)Nc1nnc(COc2ccccc2F)s1 |  |  |  |  | 42.9 µM (inactive) | 71 µM (inactive) | 35.7 µM (inactive) |  |
| NC(=O)c1ccc(NC(=O)COC(=O)c2c3c(nc4ccccc24)/C(=C\c2ccc4c(c2)OCO4)CCC3)cc1 | > 54.7 µM (inactive) | > 54.7 µM (inactive) | > 89.2 µM (inactive) | > 54.7 µM (inactive) |  |  |  | EC50 [9]: 13.6 µM (active); EC50 (Streptokinase A): > 150 µM (not active); EC50 (Streptococcus): 140 µM (active) |
| COc1ccc(C(C(=O)NC2CCCC2)N2CCc3ccccc32)cc1 (centres undefined) |  |  |  |  |  |  |  | AC50 (Vero): 29.5 µM (active) |
| CCc1cc(Cn2nc(C(=O)O)cc2-c2ccccc2)on1 | > 54.7 µM (inactive) | > 54.7 µM (inactive) | > 89.3 µM (inactive) | > 54.7 µM (inactive) |  |  |  |  |
| Nc1ccc(C2(c3ccc(N)cc3)CN3CCC2CC3)cc1 |  |  |  |  |  |  |  | AC50 [10]: 25.8 µM (active); AC50 [11]: 4.41 µM (active) |
| N/N=C(/Cc1nc2ccccc2[nH]1)c1ccc([N+](=O)[O-])cc1 |  |  |  |  | 6.69 µM (active) | 83.3 µM (inactive) | 3.17 µM (active) | IC50 (cells): 19 µM (active) |
